Test results reported in patent publication US20240246942A1, “KINASE INHIBITORS FOR THE TREATMENT OF NEURODEGENERATIVE DISEASES” (priority 2020, published 2024).

Columns and labels:
Assay in all cases: biochemical
[1] = target: T1, panel of 374 wild-type kinases (Homo sapiens, UniProt P06239); settings: read-out: % Enzyme Activity (relative to DMSO controls), LCK
T1 construct: purchased Reaction Biology Corporation

[2] = target: T2, panel of 374 wild-type kinases (Homo sapiens, UniProt P29322); settings: read-out: % Enzyme Activity (relative to DMSO controls), EPHA8
T2 construct: purchased Reaction Biology Corporation
T2 sequence (P29322 28-1005): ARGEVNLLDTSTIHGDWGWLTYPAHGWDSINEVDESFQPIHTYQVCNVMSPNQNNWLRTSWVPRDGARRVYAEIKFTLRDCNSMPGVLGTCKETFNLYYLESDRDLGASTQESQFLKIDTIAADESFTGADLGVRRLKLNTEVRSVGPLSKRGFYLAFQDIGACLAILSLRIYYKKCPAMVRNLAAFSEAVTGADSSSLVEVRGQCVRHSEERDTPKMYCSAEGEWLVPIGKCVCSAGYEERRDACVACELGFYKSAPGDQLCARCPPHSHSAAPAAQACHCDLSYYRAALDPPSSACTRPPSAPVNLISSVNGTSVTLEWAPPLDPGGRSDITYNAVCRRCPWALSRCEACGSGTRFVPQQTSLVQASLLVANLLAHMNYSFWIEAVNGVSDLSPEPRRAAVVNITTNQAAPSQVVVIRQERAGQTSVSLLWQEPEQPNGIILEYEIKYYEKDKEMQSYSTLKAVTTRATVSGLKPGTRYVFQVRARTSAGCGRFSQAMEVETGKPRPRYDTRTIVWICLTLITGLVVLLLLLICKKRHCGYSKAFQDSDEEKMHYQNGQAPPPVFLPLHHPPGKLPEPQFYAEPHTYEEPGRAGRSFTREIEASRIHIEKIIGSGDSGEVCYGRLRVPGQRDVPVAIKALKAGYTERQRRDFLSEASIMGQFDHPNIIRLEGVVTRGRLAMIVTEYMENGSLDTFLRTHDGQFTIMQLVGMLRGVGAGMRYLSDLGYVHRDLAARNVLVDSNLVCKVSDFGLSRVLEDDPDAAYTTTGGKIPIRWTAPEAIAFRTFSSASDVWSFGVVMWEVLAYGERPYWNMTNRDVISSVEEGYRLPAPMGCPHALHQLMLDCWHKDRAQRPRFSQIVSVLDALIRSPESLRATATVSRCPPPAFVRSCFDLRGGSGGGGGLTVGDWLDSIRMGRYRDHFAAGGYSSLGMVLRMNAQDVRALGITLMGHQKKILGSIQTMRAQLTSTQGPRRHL

[3] = target: T3, panel of 374 wild-type kinases (Homo sapiens, UniProt Q8NE63); settings: read-out: % Enzyme Activity (relative to DMSO controls), HIPK4
T3 construct: purchased Reaction Biology Corporation
T3 sequence (Q8NE63 1-616): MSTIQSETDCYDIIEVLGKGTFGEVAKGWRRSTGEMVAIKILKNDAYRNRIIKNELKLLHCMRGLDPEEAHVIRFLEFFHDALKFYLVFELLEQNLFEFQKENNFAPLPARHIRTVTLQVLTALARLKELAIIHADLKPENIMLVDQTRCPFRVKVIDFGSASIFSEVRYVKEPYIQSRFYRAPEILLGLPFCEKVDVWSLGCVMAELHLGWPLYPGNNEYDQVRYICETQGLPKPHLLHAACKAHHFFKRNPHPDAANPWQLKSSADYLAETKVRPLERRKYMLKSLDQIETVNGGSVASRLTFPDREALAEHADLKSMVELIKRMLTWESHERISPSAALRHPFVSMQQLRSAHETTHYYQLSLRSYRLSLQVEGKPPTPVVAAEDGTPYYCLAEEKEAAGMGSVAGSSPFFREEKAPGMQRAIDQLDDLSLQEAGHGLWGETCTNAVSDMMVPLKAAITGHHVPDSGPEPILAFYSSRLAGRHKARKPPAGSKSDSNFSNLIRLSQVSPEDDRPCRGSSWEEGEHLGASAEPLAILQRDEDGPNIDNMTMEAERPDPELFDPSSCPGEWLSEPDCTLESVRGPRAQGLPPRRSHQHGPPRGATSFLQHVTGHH

[4] = target: T4, panel of 374 wild-type kinases (Homo sapiens, UniProt O96017); settings: read-out: % Enzyme Activity (relative to DMSO controls), CHK2
T4 construct: purchased Reaction Biology Corporation

[5] = target: T5, panel of 374 wild-type kinases (Homo sapiens, UniProt Q9P1W9); settings: read-out: % Enzyme Activity (relative to DMSO controls), kinase PIM2
T5 construct: purchased Reaction Biology Corporation

[6] = target: T6, panel of 374 wild-type kinases (Homo sapiens, UniProt Q13233); settings: read-out: % Enzyme Activity (relative to DMSO controls), MEKK1
T6 construct: purchased Reaction Biology Corporation

[7] = target: T7, panel of 374 wild-type kinases (Homo sapiens, UniProt P22612); settings: read-out: % Enzyme Activity (relative to DMSO controls), kinase PKAcg
T7 construct: purchased Reaction Biology Corporation

[8] = target: T8, panel of 374 wild-type kinases (Homo sapiens, UniProt P19784); settings: CK2a2, read-out: % Enzyme Activity (relative to DMSO controls)
T8 construct: purchased Reaction Biology Corporation
T8 sequence (P19784 whole entry): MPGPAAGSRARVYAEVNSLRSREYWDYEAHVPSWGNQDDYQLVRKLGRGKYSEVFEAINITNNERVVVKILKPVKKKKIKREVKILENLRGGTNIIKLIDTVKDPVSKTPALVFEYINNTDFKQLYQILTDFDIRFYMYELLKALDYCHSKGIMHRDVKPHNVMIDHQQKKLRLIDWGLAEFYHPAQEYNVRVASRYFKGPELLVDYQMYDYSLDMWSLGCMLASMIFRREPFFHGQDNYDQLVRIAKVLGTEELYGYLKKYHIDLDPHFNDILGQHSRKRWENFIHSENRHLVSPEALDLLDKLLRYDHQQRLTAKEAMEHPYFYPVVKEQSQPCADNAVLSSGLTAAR

T4 sequence (O96017 whole entry): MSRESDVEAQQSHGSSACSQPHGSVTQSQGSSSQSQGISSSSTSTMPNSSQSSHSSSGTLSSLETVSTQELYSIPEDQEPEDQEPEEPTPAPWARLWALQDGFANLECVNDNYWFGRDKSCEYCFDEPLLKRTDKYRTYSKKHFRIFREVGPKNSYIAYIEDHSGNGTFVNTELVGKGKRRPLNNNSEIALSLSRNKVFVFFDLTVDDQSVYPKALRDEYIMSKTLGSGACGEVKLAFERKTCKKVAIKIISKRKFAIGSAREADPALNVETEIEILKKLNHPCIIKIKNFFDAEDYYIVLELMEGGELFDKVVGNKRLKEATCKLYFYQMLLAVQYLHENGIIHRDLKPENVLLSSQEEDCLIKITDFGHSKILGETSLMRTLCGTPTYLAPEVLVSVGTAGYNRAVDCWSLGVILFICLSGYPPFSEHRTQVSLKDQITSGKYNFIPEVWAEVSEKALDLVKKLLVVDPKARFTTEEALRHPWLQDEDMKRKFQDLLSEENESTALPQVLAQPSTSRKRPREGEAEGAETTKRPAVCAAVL
T1 sequence (P06239 whole entry): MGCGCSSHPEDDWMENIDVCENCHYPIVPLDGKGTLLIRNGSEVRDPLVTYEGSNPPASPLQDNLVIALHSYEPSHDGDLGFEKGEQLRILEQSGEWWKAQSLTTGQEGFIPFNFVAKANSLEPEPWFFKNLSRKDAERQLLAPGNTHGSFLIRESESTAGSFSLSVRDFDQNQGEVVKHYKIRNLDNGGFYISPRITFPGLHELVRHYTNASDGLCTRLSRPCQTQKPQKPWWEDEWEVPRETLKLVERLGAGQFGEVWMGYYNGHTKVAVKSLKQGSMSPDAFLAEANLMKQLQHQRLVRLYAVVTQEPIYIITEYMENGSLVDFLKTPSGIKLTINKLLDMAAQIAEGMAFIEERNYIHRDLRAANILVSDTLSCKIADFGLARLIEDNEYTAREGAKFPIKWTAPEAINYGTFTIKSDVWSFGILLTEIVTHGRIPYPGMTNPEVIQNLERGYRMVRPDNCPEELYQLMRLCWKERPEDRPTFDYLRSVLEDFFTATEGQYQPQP
T6 sequence (Q13233 whole entry): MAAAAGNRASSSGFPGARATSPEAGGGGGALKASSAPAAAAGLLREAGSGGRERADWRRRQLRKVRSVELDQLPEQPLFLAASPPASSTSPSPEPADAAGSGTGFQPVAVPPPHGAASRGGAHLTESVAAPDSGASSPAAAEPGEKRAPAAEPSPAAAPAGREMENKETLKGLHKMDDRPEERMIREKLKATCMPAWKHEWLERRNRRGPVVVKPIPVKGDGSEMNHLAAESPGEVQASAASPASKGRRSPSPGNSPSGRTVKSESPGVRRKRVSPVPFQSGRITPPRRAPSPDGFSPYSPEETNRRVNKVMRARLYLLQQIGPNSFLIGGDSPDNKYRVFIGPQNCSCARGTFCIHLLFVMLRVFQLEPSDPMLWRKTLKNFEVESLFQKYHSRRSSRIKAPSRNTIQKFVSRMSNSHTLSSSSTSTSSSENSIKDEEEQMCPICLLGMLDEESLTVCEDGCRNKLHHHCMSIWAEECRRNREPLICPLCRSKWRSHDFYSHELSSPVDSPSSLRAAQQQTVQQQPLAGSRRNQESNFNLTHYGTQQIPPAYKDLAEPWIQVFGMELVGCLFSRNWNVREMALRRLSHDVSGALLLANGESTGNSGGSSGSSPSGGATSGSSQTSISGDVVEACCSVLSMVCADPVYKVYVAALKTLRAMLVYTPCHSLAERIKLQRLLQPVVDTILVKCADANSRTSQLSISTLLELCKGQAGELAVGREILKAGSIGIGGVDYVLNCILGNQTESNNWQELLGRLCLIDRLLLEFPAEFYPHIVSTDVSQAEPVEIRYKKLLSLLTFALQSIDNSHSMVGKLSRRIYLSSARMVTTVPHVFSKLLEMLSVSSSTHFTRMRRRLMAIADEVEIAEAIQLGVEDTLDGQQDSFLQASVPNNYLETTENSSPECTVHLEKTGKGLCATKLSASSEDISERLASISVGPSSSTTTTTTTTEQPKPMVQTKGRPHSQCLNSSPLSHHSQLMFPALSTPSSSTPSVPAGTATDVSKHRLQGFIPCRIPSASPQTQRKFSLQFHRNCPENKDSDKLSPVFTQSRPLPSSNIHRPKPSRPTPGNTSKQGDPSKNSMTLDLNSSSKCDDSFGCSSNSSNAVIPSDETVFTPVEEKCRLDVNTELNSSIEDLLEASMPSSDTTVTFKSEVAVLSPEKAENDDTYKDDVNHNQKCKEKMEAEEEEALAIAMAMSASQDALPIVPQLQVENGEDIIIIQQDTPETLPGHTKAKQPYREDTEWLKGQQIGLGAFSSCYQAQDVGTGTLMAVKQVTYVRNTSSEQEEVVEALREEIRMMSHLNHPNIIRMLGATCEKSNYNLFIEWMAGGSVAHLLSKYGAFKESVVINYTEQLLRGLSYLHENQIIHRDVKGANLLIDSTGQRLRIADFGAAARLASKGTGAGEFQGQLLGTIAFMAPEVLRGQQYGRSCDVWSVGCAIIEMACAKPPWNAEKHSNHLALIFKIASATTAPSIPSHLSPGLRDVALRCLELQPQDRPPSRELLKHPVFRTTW
T5 sequence (Q9P1W9 whole entry): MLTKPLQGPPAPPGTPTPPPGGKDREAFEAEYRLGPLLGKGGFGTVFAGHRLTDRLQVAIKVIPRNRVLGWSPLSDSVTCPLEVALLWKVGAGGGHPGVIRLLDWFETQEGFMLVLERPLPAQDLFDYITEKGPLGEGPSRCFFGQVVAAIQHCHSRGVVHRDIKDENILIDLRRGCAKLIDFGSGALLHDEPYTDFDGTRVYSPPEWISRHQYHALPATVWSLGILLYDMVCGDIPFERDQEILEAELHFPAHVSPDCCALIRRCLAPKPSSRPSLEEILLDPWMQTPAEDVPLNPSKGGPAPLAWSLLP
T7 sequence (P22612 whole entry): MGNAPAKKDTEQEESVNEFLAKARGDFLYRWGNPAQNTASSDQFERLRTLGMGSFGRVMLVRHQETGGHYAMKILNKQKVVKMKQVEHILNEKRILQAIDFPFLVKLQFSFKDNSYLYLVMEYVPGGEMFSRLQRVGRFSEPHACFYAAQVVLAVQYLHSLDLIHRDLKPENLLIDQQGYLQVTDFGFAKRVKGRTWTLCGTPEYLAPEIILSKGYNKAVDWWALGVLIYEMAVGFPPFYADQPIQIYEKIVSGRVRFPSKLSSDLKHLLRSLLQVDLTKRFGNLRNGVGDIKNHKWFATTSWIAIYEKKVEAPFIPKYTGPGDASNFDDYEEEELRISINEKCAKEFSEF

Row | SMILES | remaining activity at 10 µM ([1]; 10 uM) | remaining activity at 10 µM ([2]; 10 uM) | remaining activity at 10 µM ([3]; 10 uM) | remaining activity at 10 µM ([4]; 10 uM) | remaining activity at 10 µM ([5]; 10 uM) | remaining activity at 10 µM ([6]; 10 uM) | remaining activity at 10 µM ([7]; 10 uM) | remaining activity at 10 µM ([8]; 10 uM) | remaining activity at 5 µM [1] | remaining activity at 5 µM [2] | remaining activity at 5 µM [3] | remaining activity at 5 µM [4] | remaining activity at 5 µM [5] | remaining activity at 5 µM [6] | remaining activity at 5 µM [7] | remaining activity at 5 µM [8]
1 | Cc1sc(C(=O)NC2COC2)cc1-n1cc(NC(=O)Nc2c(F)cccc2Cl)cn1 [Compound 27, 4-(4-(3-(2-chloro-6-fluorophenyl)ureido)-1H-pyrazol-1-yl)-5-methyl-N-(oxetan-3-yl)thiophene-2-carboxamide] | 46.5% | 91.7% | 98.4% | 95.2% | 96.5% | 94.5% | 99% | 95.5% |  |  |  |  |  |  |  | 
2 | O=C(Nc1cnn(-c2csc(C(=O)NC3COC3)c2)c1)Nc1c(F)cccc1Cl [Compound 25, 4-(4-(3-(2-chloro-6-fluorophenyl)ureido)-1H-pyrazol-1-yl)-N-(oxetan-3-yl)thiophene-2-carboxamide] |  |  |  |  |  |  |  |  | 94.2% | 93.8% | 111% | 91.5% | 129% | 98.7% | 97.6% | 96.6%
3 | O=C(Nc1cnn(-c2csc(C(=O)NC3COC3)c2)c1)Nc1ccccc1Cl [Compound 17, 4-(4-(3-(2-chlorophenyl)ureido)-1H-pyrazol-1-yl)-N-(oxetan-3-yl)thiophene-2-carboxamide] |  |  |  |  |  |  |  |  | 99.1% | 103% | 100% | 97.8% | 96.4% | 103% | 104% | 97.3%
